Laboratory results taken from ChEMBL document CHEMBL4265925, “Synthesis of 5H-pyrido[3,2-b]pyrrolizin-5-one tripentone analogs with antitumor activity” (Eur J Med Chem, 2018).
Activity calls are given as the source filed them. The calls are words filed in the database; no cut-off is given here.

Experiments:
[1] = Inhibition of sheep brain tubulin polymerization incubated at 37 degreeC for 10 mins followed by incubated at 0 degreeC for 5 mins; parameters: species or system Ovis aries
MCF7 [2] = assay: Antiproliferative activity against human MCF7 cells after 72 hrs by MTT assay; format: functional, cell-based; conditions: MCF7, 72 h
Caco-2 = assay: Cytotoxicity against human Caco2 cells assessed as reduction in cell viability at 1 to 10 uM after 72 hrs by MTT assay; format: cell-based; conditions: caco-2, 72 h
HCT-116 [3] = assay: Antiproliferative activity against human HCT116 cells after 72 hrs by MTT assay; format: functional, cell-based; conditions: HCT-116, 72 h
MCF7 [4] = assay: Induction of apoptosis in human MCF7 cells assessed as necrotic cells at 2 uM measured after 48 hrs by Annexin-V-FITC/propidium iodide staining based flow cytometric method (reference value: 0%); format: functional
HCT-116 [5] = assay: Induction of apoptosis in human HCT116 cells assessed as necrotic cells at 0.3 uM measured after 48 hrs by Annexin-V-FITC/propidium iodide staining based flow cytometric method (reference value: 0%); format: functional
MCF7 [6] = assay: Cell cycle arrest in human MCF7 cells assessed as decrease in accumulation at G1 phase at 2 uM after 48 hrs by propidium iodide/RNase staining based FACS analysis; format: functional
HCT-116 [7] = assay: Induction of apoptosis in human HCT116 cells assessed as late apoptotic cells at 0.3 uM measured after 48 hrs by Annexin-V-FITC/propidium iodide staining based flow cytometric method (reference value: 0%); format: functional
HCT-116 [8] = assay: Cell cycle arrest human HCT116 cells assessed as decrease in accumulation at G1 phase at 0.3 uM after 48 hrs by propidium iodide/RNase staining based FACS analysis; format: functional
MCF7 [9] = assay: Induction of apoptosis in human MCF7 cells assessed as early apoptotic cells at 2 uM measured after 48 hrs by Annexin-V-FITC/propidium iodide staining based flow cytometric method (reference value: 0.1%); format: functional
MCF7 [10] = assay: Cell cycle arrest in human MCF7 cells assessed as increase in accumulation at G2/M phase at 2 uM after 48 hrs by propidium iodide/RNase staining based FACS analysis; format: functional
MCF7 [11] = assay: Cell cycle arrest in human MCF7 cells assessed as increase in accumulation at subG0/G1 phase at 2 uM after 48 hrs by propidium iodide/RNase staining based FACS analysis; format: functional
MCF7 [12] = assay: Induction of apoptosis in human MCF7 cells assessed as viable cells at 2 uM measured after 48 hrs by Annexin-V-FITC/propidium iodide staining based flow cytometric method (reference value: 99.9%); format: functional; conditions: MCF7, 48 h, read-out: Activity
HCT-116 [13] = assay: Cell cycle arrest human HCT116 cells assessed as decrease in accumulation at S phase at 0.3 uM after 48 hrs by propidium iodide/RNase staining based FACS analysis; format: functional
HCT-116 [14] = assay: Induction of apoptosis in human HCT116 cells assessed as viable cells at 0.3 uM measured after 48 hrs by Annexin-V-FITC/propidium iodide staining based flow cytometric method (reference value: 99.6%); format: functional; conditions: HCT-116, 48 h, read-out: Activity
MCF7 [15] = assay: Induction of apoptosis in human MCF7 cells assessed as late apoptotic cells at 2 uM measured after 48 hrs by Annexin-V-FITC/propidium iodide staining based flow cytometric method (reference value: 0%); format: functional
Sus scrofa [16] = species: Sus scrofa; assay: Inhibition of porcine brain tubulin polymerization at 25 uM measured every 20 secs for 60 mins
MCF7 [17] = assay: Cell cycle arrest in human MCF7 cells assessed as decrease in accumulation at S phase at 2 uM after 48 hrs by propidium iodide/RNase staining based FACS analysis; format: functional
HCT-116 [18] = assay: Cell cycle arrest human HCT116 cells assessed as increase in accumulation at G2/M phase at 0.3 uM after 48 hrs by propidium iodide/RNase staining based FACS analysis; format: functional
HCT-116 [19] = assay: Cell cycle arrest human HCT116 cells assessed as increase in accumulation at subG0/G1 phase at 0.3 uM after 48 hrs by propidium iodide/RNase staining based FACS analysis; format: functional
HCT-116 [20] = assay: Induction of apoptosis in human HCT116 cells assessed as early apoptotic cells at 0.3 uM measured after 48 hrs by Annexin-V-FITC/propidium iodide staining based flow cytometric method (reference value: 0.4%); format: functional
Sus scrofa [21] = species: Sus scrofa; assay: Induction of porcine brain tubulin polymerization at 10 uM measured every 20 secs for 60 mins
HCT-116 [22] = assay: Cell cycle arrest human HCT116 cells assessed as decrease in accumulation at S phase at 0.2 uM after 48 hrs by propidium iodide/RNase staining based FACS analysis; format: functional
HCT-116 [23] = assay: Induction of apoptosis in human HCT116 cells assessed as early apoptotic cells at 0.2 uM measured after 48 hrs by Annexin-V-FITC/propidium iodide staining based flow cytometric method (reference value: 0.4%); format: functional
HCT-116 [24] = assay: Induction of apoptosis in human HCT116 cells assessed as late apoptotic cells at 0.2 uM measured after 48 hrs by Annexin-V-FITC/propidium iodide staining based flow cytometric method (reference value: 0%); format: functional
HCT-116 [25] = assay: Induction of apoptosis in human HCT116 cells assessed as viable cells at 0.2 uM measured after 48 hrs by Annexin-V-FITC/propidium iodide staining based flow cytometric method (reference value: 99.6%); format: functional; conditions: HCT-116, 48 h, read-out: Activity
HCT-116 [26] = assay: Cell cycle arrest human HCT116 cells assessed as increase in accumulation at subG0/G1 phase at 0.2 uM after 48 hrs by propidium iodide/RNase staining based FACS analysis; format: functional
HCT-116 [27] = assay: Cell cycle arrest human HCT116 cells assessed as decrease in accumulation at G1 phase at 0.2 uM after 48 hrs by propidium iodide/RNase staining based FACS analysis; format: functional
HCT-116 [28] = assay: Induction of apoptosis in human HCT116 cells assessed as necrotic cells at 0.2 uM measured after 48 hrs by Annexin-V-FITC/propidium iodide staining based flow cytometric method (reference value: 0%); format: functional
HCT-116 [29] = assay: Cell cycle arrest human HCT116 cells assessed as increase in accumulation at G2/M phase at 0.2 uM after 48 hrs by propidium iodide/RNase staining based FACS analysis; format: functional
MCF7 [30] = assay: Cell cycle arrest in human MCF7 cells assessed as increase in accumulation at G2/M phase at 3 uM after 48 hrs by propidium iodide/RNase staining based FACS analysis; format: functional
HCT-116 [31] = assay: Induction of apoptosis in human HCT116 cells assessed as early apoptotic cells at 0.1 uM measured after 48 hrs by Annexin-V-FITC/propidium iodide staining based flow cytometric method (reference value: 0.4%); format: functional
MCF7 [32] = assay: Induction of apoptosis in human MCF7 cells assessed as late apoptotic cells at 3 uM measured after 48 hrs by Annexin-V-FITC/propidium iodide staining based flow cytometric method (reference value: 0%); format: functional
HCT-116 [33] = assay: Induction of apoptosis in human HCT116 cells assessed as necrotic cells at 0.1 uM measured after 48 hrs by Annexin-V-FITC/propidium iodide staining based flow cytometric method (reference value: 0%); format: functional
MCF7 [34] = assay: Cell cycle arrest in human MCF7 cells assessed as decrease in accumulation at S phase at 3 uM after 48 hrs by propidium iodide/RNase staining based FACS analysis; format: functional
MCF7 [35] = assay: Induction of apoptosis in human MCF7 cells assessed as viable cells at 3 uM measured after 48 hrs by Annexin-V-FITC/propidium iodide staining based flow cytometric method (reference value: 99.9%); format: functional; conditions: MCF7, 48 h, read-out: Activity
HCT-116 [36] = assay: Cell cycle arrest human HCT116 cells assessed as increase in accumulation at subG0/G1 phase at 0.1 uM after 48 hrs by propidium iodide/RNase staining based FACS analysis; format: functional
HCT-116 [37] = assay: Cell cycle arrest human HCT116 cells assessed as decrease in accumulation at S phase at 0.1 uM after 48 hrs by propidium iodide/RNase staining based FACS analysis; format: functional
MCF7 [38] = assay: Induction of apoptosis in human MCF7 cells assessed as necrotic cells at 3 uM measured after 48 hrs by Annexin-V-FITC/propidium iodide staining based flow cytometric method (reference value: 0%); format: functional
MCF7 [39] = assay: Cell cycle arrest in human MCF7 cells assessed as increase in accumulation at subG0/G1 phase at 3 uM after 48 hrs by propidium iodide/RNase staining based FACS analysis; format: functional
MCF7 [40] = assay: Cell cycle arrest in human MCF7 cells assessed as decrease in accumulation at G1 phase at 3 uM after 48 hrs by propidium iodide/RNase staining based FACS analysis; format: functional
HCT-116 [41] = assay: Cell cycle arrest human HCT116 cells assessed as increase in accumulation at G2/M phase at 0.1 uM after 48 hrs by propidium iodide/RNase staining based FACS analysis; format: functional
HCT-116 [42] = assay: Induction of apoptosis in human HCT116 cells assessed as viable cells at 0.1 uM measured after 48 hrs by Annexin-V-FITC/propidium iodide staining based flow cytometric method (reference value: 99.6%); format: functional; conditions: HCT-116, 48 h, read-out: Activity
HCT-116 [43] = assay: Induction of apoptosis in human HCT116 cells assessed as late apoptotic cells at 0.1 uM measured after 48 hrs by Annexin-V-FITC/propidium iodide staining based flow cytometric method (reference value: 0%); format: functional
HCT-116 [44] = assay: Cell cycle arrest human HCT116 cells assessed as decrease in accumulation at G1 phase at 0.1 uM after 48 hrs by propidium iodide/RNase staining based FACS analysis; format: functional
MCF7 [45] = assay: Induction of apoptosis in human MCF7 cells assessed as early apoptotic cells at 3 uM measured after 48 hrs by Annexin-V-FITC/propidium iodide staining based flow cytometric method (reference value: 0.1%); format: functional

## COc1ccc(-c2csc3c2-n2cccc2C3=O)cc1O
[1]
  IC50: 2.9 µM

## O=C(N/N=C1/c2cc(Br)cnc2-n2cccc21)c1ccccc1
MCF7 [2]
  IC50: 14.9 µM
Caco-2
  Activity: Non-Toxic
HCT-116 [3]
  IC50: 1.74 µM

## O=C(N/N=C1/c2cccnc2-n2cccc21)c1ccc(O)cc1
MCF7 [2]
  IC50: 16.1 µM
Caco-2
  Activity: Non-Toxic
HCT-116 [3]
  IC50: 2.54 µM

## O=C(N/N=C1/c2cccnc2-n2cccc21)c1cccs1
MCF7 [2]
  IC50: 3.15 µM
Caco-2
  Activity: Non-Toxic
HCT-116 [3]
  IC50: 0.46 µM

## Nc1ccc(C(=O)N/N=C2/c3cc(Br)cnc3-n3cccc32)cc1
MCF7 [4]
  Activity: 0%
HCT-116 [5]
  Activity: 0%
MCF7 [6]
  Activity: Active
HCT-116 [7]
  Activity: 0%
MCF7 [2]
  IC50: 1.8 µM
Caco-2
  Activity: Non-Toxic
HCT-116 [8]
  Activity: Active
HCT-116 [3]
  IC50: 0.23 µM
MCF7 [9]
  Activity: 24.8%
MCF7 [10]
  Activity: Active
MCF7 [11]
  Activity: Active
MCF7 [12]
  viability at 2 µM: 75.2%
HCT-116 [13]
  Activity: Active
HCT-116 [14]
  viability at 0.3 µM: 67%
MCF7 [15]
  Activity: 0%
Sus scrofa [16]
  inhibition: inactive
MCF7 [17]
  Activity: Active
HCT-116 [18]
  Activity: Active
HCT-116 [19]
  Activity: Active
HCT-116 [20]
  Activity: 32.9%

## CC(=O)O[C@H]1C(=O)[C@@]2(C)[C@H]([C@H](OC(=O)c3ccccc3)[C@]3(O)C[C@H](OC(=O)[C@H](O)[C@@H](NC(=O)c4ccccc4)c4ccccc4)C(C)=C1C3(C)C)[C@]1(OC(C)=O)CO[C@@H]1C[C@@H]2O
Sus scrofa [21]
  Activity: Active

## O=C(N/N=C1/c2ncccc2-n2cccc21)c1ccccc1
MCF7 [2]
  GI50: 20.7 µM
HCT-116 [3]
  GI50: 4.25 µM

## O=C(N/N=C1/c2cc(Br)cnc2-n2cccc21)c1ccco1
HCT-116 [22]
  Activity: Active
MCF7 [4]
  Activity: 0%
HCT-116 [23]
  Activity: 31.5%
MCF7 [6]
  Activity: Active
MCF7 [2]
  IC50: 1.61 µM
Caco-2
  Activity: Non-Toxic
HCT-116 [3]
  IC50: 0.17 µM
MCF7 [9]
  Activity: 21.8%
MCF7 [10]
  Activity: Active
MCF7 [11]
  Activity: Active
MCF7 [12]
  viability at 2 µM: 78.2%
HCT-116 [24]
  Activity: 0%
HCT-116 [25]
  viability at 0.2 µM: 68.4%
MCF7 [15]
  Activity: 0%
HCT-116 [26]
  Activity: Active
HCT-116 [27]
  Activity: Active
Sus scrofa [16]
  inhibition: inactive
HCT-116 [28]
  Activity: 0%
MCF7 [17]
  Activity: Active
HCT-116 [29]
  Activity: Active

## O=C(N/N=C1/c2cc(Br)cnc2-n2cccc21)c1ccncc1
MCF7 [30]
  Activity: Active
HCT-116 [31]
  Activity: 26.7%
MCF7 [32]
  Activity: 0%
HCT-116 [33]
  Activity: 0%
MCF7 [34]
  Activity: Active
MCF7 [2]
  IC50: 3.4 µM
Caco-2
  Activity: Non-Toxic
MCF7 [35]
  viability at 3 µM: 76%
HCT-116 [3]
  IC50: 0.11 µM
HCT-116 [36]
  Activity: Active
HCT-116 [37]
  Activity: Active
MCF7 [38]
  Activity: 0%
MCF7 [39]
  Activity: Active
MCF7 [40]
  Activity: Active
HCT-116 [41]
  Activity: Active
HCT-116 [42]
  viability at 0.1 µM: 73.3%
Sus scrofa [16]
  inhibition: inactive
HCT-116 [43]
  Activity: 0%
HCT-116 [44]
  Activity: Active
MCF7 [45]
  Activity: 24%

## O=C(N/N=C1/c2cc(Br)cnc2-n2cccc21)c1ccc(O)cc1
MCF7 [2]
  IC50: 15.6 µM
Caco-2
  Activity: Non-Toxic
HCT-116 [3]
  IC50: 1.66 µM
